{
  "source": "patent US7303775B1",
  "about": "“Carbohydrate ruminant feed energy supplement and method” (Penn State Research Foundation, priority 2003, dated 2007)",
  "origin": "cited, not measured here",
  "key": {"glucagon": {"system": "glucagon", "details": "oral, same dose, humans"}, "rat liver": {"system": "rat liver", "details": "compared with glucose"}, "insulin": {"system": "insulin", "details": "compared with sucrose or glucose"}},
  "data": [
    {"smiles": "O=C(CO)[C@@H](O)[C@H](O)[C@H](O)CO", "note": "[fructose]", "values": [
      {"measurement": "effect on glucagon", "setting": "glucagon", "value": "did not"},
      {"measurement": "rate of conversion to fat by rat liver", "setting": "rat liver", "value": "much higher rate"},
      {"measurement": "potency as insulin secretagogue", "setting": "insulin", "value": "less potent"}
    ]},
    {"smiles": "OC[C@H]1O[C@@](CO)(O[C@H]2O[C@H](CO)[C@@H](O)[C@H](O)[C@H]2O)[C@@H](O)[C@@H]1O", "note": "[sucrose, reference compound]", "values": [
      {"measurement": "effect on glucagon", "setting": "glucagon", "value": "decline"}
    ]}
  ]
}
